Laboratory results reported in patent publication US9650395B2, “Antibacterial compounds and methods for use” (PTC Therapeutics, Inc., priority 2011, dated 2017).
Values after ≈ are worked out from the molar mass of the structure shown. Where two headings read alike, the source gives them in different places.

Columns and labels:
[1] = system: super sensitive Gram-negative Escherichia coli (E. coli) BAS849; test: Antibacterial activity, microbroth dilution MIC, E. coli BAS849; type: cell-based; settings: Escherichia coli, read-out: MIC, BAS849
[2] = system: control Gram-negative E. coli 25922 strain; test: Antibacterial activity, microbroth dilution MIC, E. coli 25922; type: cell-based, Escherichia coli; settings: Escherichia coli; E. coli 25922, microbroth dilution; read-out: MIC, 25922
[3] = system: Gram-positive Staphylococcus aureus (S. aureus) 29213; test: Antibacterial activity, microbroth dilution MIC, S. aureus 29213; type: cell-based; settings: Staphylococcus aureus; S. aureus 29213, microbroth dilution; read-out: MIC, 29213
[4] = system: quinolone resistant E. coli LZ3111; test: Antibacterial activity, MIC, quinolone resistant E. coli LZ3111; type: cell-based, Escherichia coli; settings: Escherichia coli, read-out: MIC, LZ3111
Source text: The antibacterial activity from a microbroth dilution method may be presented as the minimum inhibitory concentration (MIC in […]). The MIC value is the lowest concentration of a drug which prevents macroscopically visible bacterial growth under test conditions.
Mutations in these regions are known to confer a high level resistance to the quinolone class of antibiotics.

[5] = E. coli BAS849, microbroth dilution

Compound | MIC [1, 5] | MIC [2] | MIC [3] | MIC [4] | MIC [1]
CC(C)c1cc(C(=O)O)c(=O)[nH]c1-c1ccc(N(C)CCN(C)C)cc1 [Cpd 165, 6-(4-{[2-(dimethylamino)ethyl](methyl)amino}phenyl)-2-oxo-5-(propan-2-yl)-1,2-dihydropyridine-3-carboxylic acid] | 1 to 3.5 µg/mL (≈ 2.8 to 9.79 µM) | 12.5 to 150 µg/mL (≈ 35 to 420 µM) | 12.5 to 150 µg/mL (≈ 35 to 420 µM) | 12.5 to 150 µg/mL (≈ 35 to 420 µM) | 
CCc1cc(C(=O)O)c(=O)[nH]c1-c1ccc(N2CCC(C)(N)C2)cc1.O=C(O)C(F)(F)F (stereo not shown) [Cpd 166, 6-[4-(3-amino-3-methylpyrrolidin-1-yl)phenyl]-5-ethyl-2-oxo-1,2-dihydropyridine-3-carboxylic acid trifluoroacetate] |  | 3.5 to 12.5 µg/mL | 12.5 to 150 µg/mL | 12.5 to 150 µg/mL | < 1 µg/mL
CCc1cc(C(=O)O)c(=O)[nH]c1-c1ccc(N2CC(NC(=O)N(C)CC(=O)O)C2)cc1 [Cpd 167, 6-[4-(3-{[(carboxymethyl)(methyl)carbamoyl]amino}azetidin-1-yl)phenyl]-5-ethyl-2-oxo-1,2-dihydropyridine-3-carboxylic acid] | 1 to 3.5 µg/mL (≈ 2.33 to 8.17 µM) | 12.5 to 150 µg/mL (≈ 29.2 to 350 µM) | 12.5 to 150 µg/mL (≈ 29.2 to 350 µM) | 12.5 to 150 µg/mL (≈ 29.2 to 350 µM) | 
CCc1cc(C(=O)O)c(=O)[nH]c1-c1ccc(N2CC(n3nnc(C)n3)C2)cc1 [Cpd 168, 5-ethyl-6-{4-[3-(5-methyl-2H-tetrazol-2-yl)azetidin-1-yl]phenyl}-2-oxo-1,2-dihydropyridine-3-carboxylic acid] | < 1 µg/mL | 12.5 to 150 µg/mL (≈ 32.9 to 394 µM) | 12.5 to 150 µg/mL (≈ 32.9 to 394 µM) | 12.5 to 150 µg/mL (≈ 32.9 to 394 µM) | 
CCc1cc(C(=O)O)c(=O)[nH]c1-c1ccc(N2CC3CC3(N)C2)cc1.Cl (stereo not shown) [Cpd 169, 6-[4-(1-amino-3-azabicyclo[3.1.0]hex-3-yl)phenyl]-5-ethyl-2-oxo-1,2-dihydropyridine-3-carboxylic acid hydrochloride] | < 1 µg/mL | 1 to 3.5 µg/mL | 12.5 to 150 µg/mL | 12.5 to 150 µg/mL | 
CCc1cc(C(=O)O)c(=O)[nH]c1-c1ccc(N2CCC(N3CCCC3)C2)cc1 (stereo not shown) [Cpd 175, 6-[4-(1,3′-bipyrrolidin-1′-yl)phenyl]-5-ethyl-2-oxo-1,2-dihydropyridine-3-carboxylic acid] | < 1 µg/mL | 1 to 3.5 µg/mL (≈ 2.62 to 9.17 µM) | 12.5 to 150 µg/mL (≈ 32.8 to 393 µM) | 12.5 to 150 µg/mL (≈ 32.8 to 393 µM) | 
CCc1cc(C(=O)O)c(=O)[nH]c1-c1ccc(N2CCC(CNC)C2)cc1.Cl (stereo not shown) [Cpd 184, 5-ethyl-6-(4-{3-[(methylamino)methyl]pyrrolidin-1-yl}phenyl)-2-oxo-1,2-dihydropyridine-3-carboxylic acid hydrochloride] | 1 to 3.5 µg/mL | 12.5 to 150 µg/mL | 12.5 to 150 µg/mL | 12.5 to 150 µg/mL | 
CCc1cc(C(=O)O)c(=O)[nH]c1-c1ccc(N2CCC(CN)C2)cc1.O=C(O)C(F)(F)F (stereo not shown) [Cpd 188, 6-{4-[3-(aminomethyl)pyrrolidin-1-yl]phenyl}-5-ethyl-2-oxo-1,2-dihydropyridine-3-carboxylic acid trifluoroacetate] |  | 3.5 to 12.5 µg/mL | 12.5 to 150 µg/mL | 12.5 to 150 µg/mL | < 1 µg/mL
CCc1cc(C(=O)O)c(=O)[nH]c1-c1ccc(N2C[C@H]3CCN[C@H]3C2)cc1.O=C(O)C(F)(F)F [Cpd 190, 5-ethyl-6-{4-[(3aR,6aR)-hexahydropyrrolo[3,4-b]pyrrol-5(1H)-yl]phenyl}-2-oxo-1,2-dihydropyridine-3-carboxylic acid trifluoroacetate] |  | 12.5 to 150 µg/mL | 12.5 to 150 µg/mL | 12.5 to 150 µg/mL | 1 to 3.5 µg/mL
CCc1cc(C(=O)O)c(=O)[nH]c1-c1ccc(N2CCC(CN3CCCC3)C2)cc1 (stereo not shown) [Cpd 191, 5-ethyl-2-oxo-6-{4-[3-(pyrrolidin-1-ylmethyl)pyrrolidin-1-yl]phenyl}-1,2-dihydropyridine-3-carboxylic acid] | < 1 µg/mL | 1 to 3.5 µg/mL (≈ 2.53 to 8.85 µM) | 12.5 to 150 µg/mL (≈ 31.6 to 379 µM) | 12.5 to 150 µg/mL (≈ 31.6 to 379 µM) | 
